Eleven molecules from patent US6706740B2, “Fungicidal heterocyclic aromatic amides and their compositions, methods of use and preparation” (Dow AgroSciences LLC, priority 1999, dated 2004) can be followed below.

Structures are written as SMILES. Like-named read-outs stand apart in the source and are kept apart here.

The test system of one assay is Ustilago maydis (USTIMA). The assay is described as follows: microbe, parasite or virus in culture. Type of assay: cell-based. The conditions noted are these: Mycosarcoma maydis, read-out: USTIMA in vitro Growth Inhibition.
In assay [1] the test system is Leptosphaeria nodorum—LEPTNO. Kind of assay: Glume Blotch of Wheat, in vivo whole plant, 24 Hour Protectant. The following applies: for pest or weed control at 100 ppm: Leptosphaeria, read-out: LEPTNO in vivo 1 Day Protectant.
Assay [2] concerns Phytophthora infestans—PHYTIN. Kind of assay: whole plant or invertebrate. In kind it is in vivo. The following applies: for pest or weed control at 100 ppm: Phytophthora, in Solanum lycopersicum, 24 h, read-out: PHYTIN in vivo 1 Day Protectant.
Assay [3] relates to Stagonospora nodorum (Leptosphaeria nodorum—LEPTNO). Kind of assay: In vitro fungal growth inhibition, Stagonospora nodorum (LEPTNO). In kind it is cell-based. The following applies: Leptosphaeria, read-out: LEPTNO in vitro Growth Inhibition.
In another assay the test system is Septoria tritici—SEPTTR. The assay is described as follows: Leaf Blotch of Wheat, in vivo whole plant, 24 Hour Protectant. The following applies: for pest or weed control at 100 ppm: Zymoseptoria tritici, 24 h, read-out: SEPTTR in vivo 1 Day Protectant.
The test system of assay [4] is Mycosphaerella graminicola (Septoria tritici—SEPTTR). Kind of assay: In vitro fungal growth inhibition, Mycosphaerella graminicola (SEPTTR). In kind it is cell-based. The conditions noted are these: Zymoseptoria tritici, read-out: SEPTTR in vitro Growth Inhibition.
Assay [5] has as its system Phytophthora infestans (PHYTIN). Kind of assay: microbe, parasite or virus in culture. Type of assay: cell-based. The following applies: Phytophthora infestans, read-out: PHYTIN in vitro Growth Inhibition.
Assay [6] concerns Magnaporthe grisea (Pyricularia oryzae—PYRIOR). Kind of assay: microbe, parasite or virus in culture. Type of assay: cell-based. The conditions noted are these: Pyricularia oryzae, read-out: PYRIOR in vitro Growth Inhibition.
Another assay deals with Erysiphe graminis—ERYSGT. Kind of assay: Powdery Mildew of Wheat, in vivo whole plant, 24 Hour Protectant. The conditions noted are these: Erysiphe, read-out: ERYSGT in vivo 1 Day Protectant.
Assay [7] concerns Puccinia recondita—PUCCRT. The assay is described as follows: Brown Rust of Wheat, in vivo whole plant, 24 Hour Protectant. The following applies: for pest or weed control at 100 ppm: Puccinia, read-out: PUCCRT in vivo 1 Day Protectant.
Assay [8] deals with Rhizoctonia solani (RHIZSO). Kind of assay: microbe, parasite or virus in culture. Type of assay: cell-based. The following applies: Rhizoctonia solani, read-out: RHIZSO in vitro Growth Inhibition.
Where [9] appears, read: wheat plants sprayed at 100 ppm, inoculated after 24 hours, control of fungal infection vs untreated plants.
The mark [10] stands for this setting: 100 ppm spray, wheat, 24 hour protectant, % control of fungal infection vs untreated plants.
Setting [11] is: 100 ppm spray, 24 hour protectant, wheat, control of fungal infection vs untreated plants.
Setting [12] is: 100 ppm spray, wheat, 24 hour protectant, control of fungal infection vs untreated plants.

Broadly, the inhibition is the share of the control response that was lost under treatment. On to `O=C(Nc1ccc(Oc2ccc(C(F)(F)F)cc2)cc1)c1nc(Br)ccc1O` [Compound 499], for which the inhibition at 25 ppm (in the assay with Ustilago maydis (USTIMA); in [3] (25 ppm in the growth medium); in assay [4] (25 ppm in the growth medium); in [5]; in [6]; in assay [8]) was below 80% throughout. The pest or weed control at 100 ppm was 25 to 74% in assay [1] (setting [9]); below 25% in assay [2]; below 25% in the assay on Septoria tritici—SEPTTR (setting [9]); below 25% in the assay with Erysiphe graminis—ERYSGT (setting [9]); 25 to 74% in assay [7] (setting [9]).
For the molecule `COc1ccnc(C(=O)N[C@H]2COC(=O)[C@H](Cc3ccccc3)[C@@H](OC(C)=O)[C@H](C)OC2=O)c1OC(C)=O` [Compound 596], the inhibition at 25 ppm was below 80% in the assay on Ustilago maydis (USTIMA); below 80% in [3] (25 ppm in growth medium); below 80% in [4] (25 ppm in growth medium); above 80% in assay [5]; above 80% in assay [6]; below 80% in assay [8]. Moreover, the “LEPTNO in vivo 1 Day Protectant” value in assay [1] (setting [10]) is on record as “+ +”. For the same molecule, the pest or weed control at 100 ppm is below 25% in assay [2], 25 to 74% in the assay on Septoria tritici—SEPTTR (setting [10]) and below 25% with Erysiphe graminis—ERYSGT (setting [10]). The “PUCCRT in vivo 1 Day Protectant” value in [7] (setting [10]) was “+ +”.
As to `COc1ccnc(C(=O)N[C@H]2CO[C@@](C)(C(C)CC3=C(C)CCCC3(C)C)OC2)c1O` (stereo partly shown) [Compound 318], the inhibition at 25 ppm in the assay with Ustilago maydis (USTIMA) is below 80%; in assay [3] (25 ppm in growth medium), above 80%; in [4] (25 ppm in growth medium) it was above 80%; in assay [5], above 80%; in assay [6] it was below 80%; in [8] it was above 80%. The pest or weed control at 100 ppm in assay [1] (setting [11]) was 25 to 74%; in assay [2], 25 to 74%; with Septoria tritici—SEPTTR (setting [11]) it was 25 to 74%; with Erysiphe graminis—ERYSGT (setting [11]), below 25%; in [7] (setting [11]), 25 to 74%.
Turning to `COc1ccc(C(=O)Oc2c(OC)ccnc2C(=O)N[C@H]2COC(=O)[C@H](Cc3ccccc3)[C@@H](OC(=O)C(C)C)[C@H](C)OC2=O)cc1` [Compound 634], the inhibition at 25 ppm (in the assay on Ustilago maydis (USTIMA); in [3] (25 ppm in growth medium); in assay [4] (25 ppm in growth medium); in assay [5]; in [6]; in [8]) was below 80% throughout. Moreover, in assay [1] (setting [10]), the “LEPTNO in vivo 1 Day Protectant” value was “+ +”. Besides, the pest or weed control at 100 ppm (in assay [2]; in the assay on Erysiphe graminis—ERYSGT (setting [10])) was below 25% each time. Also, the “SEPTTR in vivo 1 Day Protectant” value with Septoria tritici—SEPTTR (setting [10]) was “+ +”. The “PUCCRT in vivo 1 Day Protectant” value in [7] (setting [10]) was “+ +”.
For `COc1ccnc(C(=O)NC2CC(C(F)(F)F)CC(C(F)(F)F)C2)c1O` (stereo not shown) [Compound 256], the inhibition at 25 ppm (in the assay with Ustilago maydis (USTIMA); in [3] (25 ppm in growth medium); in assay [4] (25 ppm in growth medium); in [5]; in [6]; in assay [8]) was below 80% each time. Also, the pest or weed control at 100 ppm in assay [1] (setting [11]) is 25 to 74%; in [2], below 25%; with Septoria tritici—SEPTTR (setting [11]), 25 to 74%; in the assay with Erysiphe graminis—ERYSGT (setting [11]) it was 25 to 74%; in assay [7] (setting [11]), 25 to 74%.
For `CC(C)C(=O)O[C@H]1[C@H](C)OC(=O)[C@@H](NC(=O)c2nsnc2O)COC(=O)[C@@H]1Cc1ccccc1` [Compound 553], the inhibition at 25 ppm (in the assay with Ustilago maydis (USTIMA); in assay [3] (25 ppm in the growth medium); in assay [4] (25 ppm in the growth medium); in assay [5]; in assay [6]; in assay [8]) was above 80% throughout. Moreover, the “LEPTNO in vivo 1 Day Protectant” value in assay [1] (setting [9]) was “+ +”. In assay [2] (tomato plants sprayed at 100 ppm, inoculated after 24 hours, control of fungal infection vs untreated plants), the “PHYTIN in vivo 1 Day Protectant” value is on record as “+ +”. Besides, the pest or weed control at 100 ppm (in the assay on Septoria tritici—SEPTTR (setting [9]); in the assay with Erysiphe graminis—ERYSGT (setting [9]); in [7] (setting [9])) was 25 to 74% throughout.
Take `COCCC(=O)Oc1cccnc1C(=O)N[C@H]1COC(=O)[C@H](Cc2ccccc2)[C@@H](OC(=O)C(C)C)[C@H](C)OC1=O` [Compound 569]: the inhibition at 25 ppm was below 80% in the assay on Ustilago maydis (USTIMA); above 80% in assay [3] (25 ppm in the growth medium); above 80% in [4] (25 ppm in the growth medium); below 80% in [5]; above 80% in assay [6]; below 80% in assay [8]. In assay [1] (setting [9]), the “LEPTNO in vivo 1 Day Protectant” value is reported as “+ +”. The pest or weed control at 100 ppm was 25 to 74% in [2] and below 25% in the assay with Erysiphe graminis—ERYSGT (setting [9]). Also, in the assay on Septoria tritici—SEPTTR (setting [9]), the “SEPTTR in vivo 1 Day Protectant” value is reported as “+ +”. The “PUCCRT in vivo 1 Day Protectant” value in assay [7] (setting [9]) is reported as “+ +”.
With `COC(=O)C(COC(=O)COCc1ccccc1)NC(=O)c1nccc(OC)c1O` (stereo not shown) [Compound 346], the inhibition at 25 ppm with Ustilago maydis (USTIMA) is below 80%; in [3] (25 ppm in growth medium), below 80%; in [4] (25 ppm in growth medium), below 80%; in assay [5], above 80%; in assay [6], below 80%; in assay [8], below 80%. Further, the pest or weed control at 100 ppm was below 25% in [1] (setting [12]); below 25% in assay [2]; 25 to 74% in the assay with Septoria tritici—SEPTTR (setting [12]); below 25% in the assay with Erysiphe graminis—ERYSGT (setting [12]); 25 to 74% in assay [7] (setting [12]).
For `O=C(NCc1ccc(Cl)cc1)c1ccncc1O` [Compound 507], the inhibition at 25 ppm (in the assay on Ustilago maydis (USTIMA); in assay [3] (25 ppm in the growth medium); in [4] (25 ppm in the growth medium); in assay [5]; in assay [6]; in assay [8]) was below 80% throughout. The pest or weed control at 100 ppm (in [1] (setting [9]); in [2]; with Septoria tritici—SEPTTR (setting [9]); with Erysiphe graminis—ERYSGT (setting [9]); in assay [7] (setting [9])) was below 25% throughout.
`COc1ccnc(C(=O)N[C@@H]2OC[C@@H](OC(C)=O)[C@H](OC(C)=O)[C@H]2OC(C)=O)c1O` [Compound 330]: the inhibition at 25 ppm (in the assay with Ustilago maydis (USTIMA); in assay [3] (25 ppm in growth medium); in assay [4] (25 ppm in growth medium); in assay [5]; in assay [6]; in [8]) was below 80% each time. Moreover, the pest or weed control at 100 ppm (in [1] (setting [12]); in [2]; with Septoria tritici—SEPTTR (setting [12]); in the assay with Erysiphe graminis—ERYSGT (setting [12]); in [7] (setting [12])) was below 25% in each case.
Take `O=C(Nc1nccs1)c1ncccc1O` [Compound 235]: the inhibition at 25 ppm (in the assay on Ustilago maydis (USTIMA); in assay [3] (25 ppm in growth medium); in [4] (25 ppm in growth medium); in [5]; in assay [6]; in [8]) was above 80% throughout. The pest or weed control at 100 ppm (in assay [1] (setting [11]); in assay [2]; in the assay on Septoria tritici—SEPTTR (setting [11]); in the assay with Erysiphe graminis—ERYSGT (setting [11]); in assay [7] (setting [11])) was below 25% each time.
